Assay results published in ChEMBL document CHEMBL4342418, “1,2,3-Triazole-containing hybrids as potential anticancer agents: Current developments, action mechanisms and structure-activity relationships” (Eur J Med Chem, 2019).
pIC50: −log10 of the molar value. Converted amounts (≈) assume the structure as drawn.

Legend:
HT-29 = experiment: Antiproliferative activity against human HT-29 cells assessed as reduction in cell viability after 48 hrs by MTT assay; assay type: functional, cell-based; settings: HT-29, 48 h
A549 [1] = experiment: Antiproliferative activity against human A549 cells assessed as reduction in cell viability after 48 hrs by MTT assay; assay type: functional, cell-based; settings: A549, 48 h
PC-3 = experiment: cells; assay type: functional, cell-based; settings: Homo sapiens, PC-3, 48 h
Description: Antiproliferative activity against human PC3 cells assessed as reduction in cell viability after 48 hrs by MTT assay

U-87 MG = experiment: Antiproliferative activity against human U87MG cells assessed as reduction in cell viability after 48 hrs by MTT assay; assay type: functional, cell-based, U-87MG ATCC
HCT-116 [2] = experiment: Antiproliferative activity against human HCT116 cells by MTT assay; assay type: functional, cell-based
HepG2 [3] = experiment: Antiproliferative activity against human HepG2 cells by MTT assay; assay type: functional, cell-based
MCF7 [4] = experiment: cells; assay type: functional, cell-based; settings: Homo sapiens
Description: Antiproliferative activity against human MCF7 cells by MTT assay

MCF7 [5] = experiment: Antiproliferative activity against human MCF7 cells assessed as reduction in cell viability after 72 hrs by MTT assay; assay type: functional, cell-based; settings: MCF7, 72 h
T47D [6] = experiment: Antiproliferative activity against human T47D cells assessed as reduction in cell viability after 72 hrs by MTT assay; assay type: functional, cell-based
MCF7 [7] = experiment: Antiproliferative activity against human MCF7 cells assessed as reduction in cell viability after 48 hrs by MTT assay; assay type: functional, cell-based; settings: MCF7, 48 h
C2C12 = experiment: Cytotoxicity against mouse C2C12 cells assessed as reduction in cell viability after 48 hrs by MTT assay; assay type: cell-based; settings: C2C12, 48 h
HCT-116 [8] = experiment: Antiproliferative activity against human HCT116 cells assessed as reduction in cell viability after 48 hrs by MTT assay; assay type: functional, cell-based; settings: HCT-116, 48 h
[9] = Antiproliferative activity against human SMCC7721 cells assessed as reduction in cell viability after 48 hrs by MTT assay; assay type: functional, cell-based
SW480 = experiment: Antiproliferative activity against human SW480 cells assessed as reduction in cell viability after 48 hrs by MTT assay; assay type: functional, cell-based; settings: SW480, 48 h
SUM-159-PT = experiment: Antiproliferative activity against human SUM159 cells assessed as reduction in cell viability after 72 hrs by MTT assay; assay type: functional, cell-based
SK-BR-3 = experiment: Antiproliferative activity against human SKBR3 cells assessed as reduction in cell viability after 72 hrs by MTT assay; assay type: functional, cell-based; settings: SK-BR-3, 72 h
KG-1a = experiment: Antiproliferative activity against human KG1a cells assessed as reduction in cell viability after 72 hrs by MTT assay; assay type: functional, cell-based
T47D [10] = experiment: Antiproliferative activity against human T47D cells assessed as reduction in cell viability after 48 hrs by MTT assay; assay type: functional, cell-based
Caco-2 = experiment: Antiproliferative activity against human Caco2 cells assessed as reduction in cell viability after 48 hrs by MTT assay; assay type: functional, cell-based; settings: Caco-2, 48 h
HEK293 = experiment: Cytotoxicity against HEK293 cells assessed as reduction in cell viability after 48 hrs by MTT assay; assay type: cell-based; settings: Homo sapiens, HEK293, 48 h
MDA-MB-231 [11] = experiment: Antiproliferative activity against human MDA-MB-231 cells assessed as reduction in cell viability after 48 hrs by MTT assay; assay type: functional, cell-based; settings: MDA-MB-231, 48 h
DU-145 [12] = experiment: Antiproliferative activity against human DU145 cells assessed as reduction in cell viability after 48 hrs by MTT assay; assay type: functional, cell-based; settings: DU-145, 48 h
DU-145 [13] = experiment: Antiproliferative activity against human DU145 cells by SRB assay; assay type: functional, cell-based
HepG2 [14] = experiment: Antiproliferative activity against human HepG2 cells by SRB assay; assay type: functional, cell-based
HeLa = experiment: Antiproliferative activity against human HeLa cells by SRB assay; assay type: functional, cell-based
MDA-MB-231 [15] = experiment: Antiproliferative activity against human MDA-MB-231 cells by SRB assay; assay type: functional
A549 [16] = experiment: Antiproliferative activity against human A549 cells by SRB assay; assay type: functional, cell-based
MGC-803 = experiment: Antiproliferative activity against human MGC803 cells by MTT assay; assay type: functional, cell-based
SK-N-SH = experiment: Antiproliferative activity against human SK-N-SH cells by MTT assay; assay type: functional, cell-based

COc1ccc(Cn2cc(C(=O)c3cn(-c4ccccc4)nc3-c3ccc(Cl)cc3)nn2)cc1OC
pIC50 (HT-29): 5.43 to 6.07 | pIC50 (A549 [1]): 5.43 to 6.07 | pIC50 (PC-3): 5.43 to 6.07 | pIC50 (U-87 MG): 5.43 to 6.07

COc1ccc(Cn2cc(C(=O)c3cn(-c4ccccc4)nc3-c3ccc(F)cc3)nn2)cc1OC
pIC50 (HT-29): 5.43 to 6.07 | pIC50 (A549 [1]): 5.43 to 6.07 | pIC50 (PC-3): 5.43 to 6.07 | pIC50 (U-87 MG): 5.43 to 6.07

COc1ccc(-c2nn(-c3ccccc3)cc2C(=O)c2cn(Cc3ccc(OC)c(OC)c3)nn2)cc1
pIC50 (HT-29): 5.43 to 6.07 | pIC50 (A549 [1]): 5.43 to 6.07 | pIC50 (PC-3): 5.43 to 6.07 | pIC50 (U-87 MG): 5.43 to 6.07

CC(=O)N1N=C(c2nnn(-c3ccc(-n4nnc(C5=NN(C(C)=O)C(c6ccccc6)C5)c4C)cc3)c2C)CC1c1ccccc1 (stereo unspecified)
IC50 (HCT-116 [2]): > 100 mg/L | IC50 (HepG2 [3]): > 100 mg/L | IC50 (MCF7 [4]): 66.8 mg/L (≈ 109 µM)

O=C(NCc1cn(Cc2ccc(F)cc2)nn1)c1cc(-c2ccccc2)on1
GI50 (MCF7 [5]): 27.7 to 85.7 mg/L (≈ 73.4 to 227 µM) | GI50 (T47D [6]): 27.7 to 85.7 mg/L (≈ 73.4 to 227 µM)

O=C(Nc1ccc(-n2cc(Oc3ccc(-c4cc(-c5ccc(Oc6cn(-c7ccc(NC(=O)[C@@H]8CCCN8)cc7)nn6)cc5)cc(-c5ccc(Oc6cn(-c7ccc(NC(=O)[C@@H]8CCCN8)cc7)nn6)cc5)c4)cc3)nn2)cc1)[C@@H]1CCCN1
pIC50 (MCF7 [7]): 4.87 to 5.15 | pIC50 (C2C12): < 4.40 | pIC50 (HCT-116 [8]): 4.87 to 5.15

COc1cc([C@@H]2c3cc4c(cc3[C@H](n3cc(CO[C@@H]5O[C@H](CO[C@@H]6O[C@H](CO)[C@@H](O)[C@H](O)[C@H]6O)[C@@H](O)[C@H](O)[C@H]5O)nn3)[C@H]3COC(=O)[C@H]23)OCO4)cc(OC)c1OC
pIC50 (A549 [1]): 5.13 to 6.17 | pIC50 (MCF7 [7]): 5.13 to 6.17 | pIC50 [9]: 5.13 to 6.17 | pIC50 (SW480): 5.13 to 6.17

Fc1cccc(COc2ccc(Nc3ncnc4ccc(-n5cc(CN6CCCC6)nn5)cc34)cc2Cl)c1
pIC50 (SUM-159-PT): 5.13 to 5.69 | pIC50 (SK-BR-3): 5.13 to 5.69 | pIC50 (KG-1a): 5.13 to 5.69

O=C(Cn1cc(C(O)c2ccccc2)nn1)N1CCN(c2nc3ccccc3s2)CC1 (stereo unspecified)
pIC50 (T47D [10]): 3.81 to 4.48 | pIC50 (MCF7 [7]): 3.81 to 4.48 | pIC50 (Caco-2): 3.81 to 4.48 | pIC50 (HCT-116 [8]): 3.81 to 4.48

CN(C)CCCOc1cc(C(=O)NCc2cn(-c3cccc(NC(=O)[C@@H]4CCCN4)c3)nn2)nc(C(=O)NCc2cn(-c3cccc(NC(=O)[C@H]4CCCN4)c3)nn2)c1
pIC50 (MCF7 [7]): 5.77 | pIC50 (C2C12): < 4.40 | pIC50 (HCT-116 [8]): 5.89

CN1CCN(Cc2cn(-c3ccc4ncnc(Nc5ccc(OCc6cccc(F)c6)c(Cl)c5)c4c3)nn2)CC1
pIC50 (SUM-159-PT): 5.13 to 5.69 | pIC50 (SK-BR-3): 5.13 to 5.69 | pIC50 (KG-1a): 5.13 to 5.69

CCCN1CCC(NCc2cn(-c3ccc4ncnc(Nc5ccc(OCc6cccc(F)c6)c(Cl)c5)c4c3)nn2)CC1
pIC50 (SUM-159-PT): 5.13 to 5.69 | pIC50 (SK-BR-3): 5.13 to 5.69 | pIC50 (KG-1a): 5.13 to 5.69

COc1cc(-c2ccc(Cn3cc(C(=O)c4c(-c5ccccc5)nc5ccccn45)nn3)cc2)cc(OC)c1OC
pIC50 (A549 [1]): 5.40 to 6.29 | pIC50 (HEK293): 4.20 | pIC50 (MDA-MB-231 [11]): 5.40 to 6.29 | pIC50 (HCT-116 [8]): 5.40 to 6.29 | pIC50 (DU-145 [12]): 5.40 to 6.29

O=c1oc(-c2ccccc2)nn1Cc1cn(Cc2ccccc2)nn1
GI50 (DU-145 [13]): 0.82 to 2.39 µM | GI50 (HepG2 [14]): 0.82 to 2.39 µM | GI50 (HeLa): 0.82 to 2.39 µM | GI50 (MDA-MB-231 [15]): 0.82 to 2.39 µM

COc1ccc(/C=C/C(=O)c2cc(OC)c(OC)c(OC)c2)cc1OCc1cn(Cc2ccc(N)cc2)nn1
GI50 (DU-145 [13]): 1.3 to 8.2 µM | GI50 (A549 [16]): 1.3 to 8.2 µM | GI50 (HepG2 [14]): 1.3 to 8.2 µM | GI50 (HeLa): 1.3 to 8.2 µM

CN(C)CCCOc1cc(C(=O)NCc2cn(-c3ccc(NC(=O)[C@@H]4CCCN4)cc3)nn2)nc(C(=O)NCc2cn(-c3ccc(NC(=O)[C@H]4CCCN4)cc3)nn2)c1
pIC50 (MCF7 [7]): 4.84 | pIC50 (C2C12): < 4.40 | pIC50 (HCT-116 [8]): 4.82

Cc1c(C2=NN(C(=S)NCc3ccccc3)C(c3ccccc3)C2)nnn1-c1ccc(-n2nnc(C3=NN(C(=S)NCc4ccccc4)C(c4ccccc4)C3)c2C)cc1 (stereo unspecified)
IC50 (HCT-116 [2]): > 100 mg/L | IC50 (HepG2 [3]): > 100 mg/L | IC50 (MCF7 [4]): 43.5 mg/L (≈ 52.6 µM)

COc1cc(/C=C/C(=O)c2ccc(OCCCn3cc(CSc4nnnn4C)nn3)cc2)cc(OC)c1OC
pIC50 (MGC-803): 4.98 to 5.82 | pIC50 (SK-N-SH): 4.98 to 5.82 | pIC50 (HepG2 [3]): 4.98 to 5.82

Cc1ccc(-c2nn(Cc3cn(Cc4ccccc4F)nn3)c(=O)o2)cc1
GI50 (DU-145 [13]): 0.82 to 2.39 µM | GI50 (HepG2 [14]): 0.82 to 2.39 µM | GI50 (HeLa): 0.82 to 2.39 µM | GI50 (MDA-MB-231 [15]): 0.82 to 2.39 µM
